Data on 35 compounds can be found in patent US20160016951A1 (Merck Patent GmbH, priority 2014, published 2016).

By IC50 is commonly meant the midpoint of a concentration-inhibition curve.

For this test, the target named is T1, CDK8 (CDK8/CycC) (Homo sapiens, UniProt P49336).
T1 construct: purchased Invitrogen PV4402
Kind of test: FRET based Lanthascreen binding competition assay. The settings on record: 5 nM CDK8/CycC, 10 nM Alexa647-Tracer, 1% DMSO, 60 min at RT; read-out: IC50 CDK8 binding. How it is done: FRET based Lanthascreen binding competition assay: A dye-labeled ATP competitive probe served as a FRET acceptor upon binding to CDK8 labeled with a strepavidin —Eu-chelate (via abiotinylated anti His antibody). […] In case this probe was competed by an inhibitor as such a signal cannot be generated any more. The CDK8 used for this assay was a protein co-expressed with CycC.
The assay procedure for an assay in a 1536 well plate was performed according to the following: 2 μL CDK8/biotin-anti-His Ab/SA-Eu mix in Assay buffer were pipetted into the wells of a micro plate.
1 μL compound in 20 mM Hepes buffer/5% DMSO was added. The plate was shaken for 30 sec and incubated for 20 min at RT. 2 μL Alexa647-probe in assay buffer were added. The plate was shaken for 30 sec again and incubated for 60 min at RT in the dark. Then the plate was read out on a Perkin Elmer Envision (mode LANCE/TRF, excitation 340 nm emission 650 nm).
A general note: Time-resolved FRET reads energy transfer from a long-lived donor to a nearby acceptor.

T1 sequence (P49336 whole entry): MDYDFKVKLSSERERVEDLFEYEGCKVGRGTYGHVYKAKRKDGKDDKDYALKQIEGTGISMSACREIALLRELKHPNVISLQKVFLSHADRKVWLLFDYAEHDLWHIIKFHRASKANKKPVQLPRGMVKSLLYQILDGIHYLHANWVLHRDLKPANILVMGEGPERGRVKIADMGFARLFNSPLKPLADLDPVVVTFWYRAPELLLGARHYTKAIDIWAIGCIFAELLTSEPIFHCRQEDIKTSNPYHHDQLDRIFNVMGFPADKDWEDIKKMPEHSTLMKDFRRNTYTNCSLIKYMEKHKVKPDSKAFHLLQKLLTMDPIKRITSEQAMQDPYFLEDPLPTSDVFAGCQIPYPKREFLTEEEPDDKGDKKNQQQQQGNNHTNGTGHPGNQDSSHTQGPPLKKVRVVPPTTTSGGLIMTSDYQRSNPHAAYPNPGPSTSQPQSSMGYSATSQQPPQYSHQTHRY
T1 sequence (P24863 whole entry partner): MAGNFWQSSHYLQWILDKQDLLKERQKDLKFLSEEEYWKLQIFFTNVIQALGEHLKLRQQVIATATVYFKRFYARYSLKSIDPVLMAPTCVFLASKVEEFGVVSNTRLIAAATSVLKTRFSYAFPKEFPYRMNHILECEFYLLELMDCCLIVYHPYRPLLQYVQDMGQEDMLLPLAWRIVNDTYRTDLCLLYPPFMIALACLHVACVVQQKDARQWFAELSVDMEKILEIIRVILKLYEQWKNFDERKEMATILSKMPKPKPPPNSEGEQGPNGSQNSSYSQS

Regarding `Cn1cc(-c2ccc(-c3cncc4ccc(S(C)(=O)=O)cc34)cc2)cn1` [Compound 189, 6-Methanesulfonyl-4-[4-(1-methyl-1H-pyrazol-4-yl)-phenyl]-isoquinoline], the IC50 was 0.01 to 0.1 µM.

Consider `Cn1cc(-c2ccc(-c3cncc4ccc(S(C)(=N)=O)cc34)cc2)cn1` (centres unmarked) [Compound 190, 6-[imino(methane)sulfinyl]-4-[4-(1-methyl-1H-pyrazol-4-yl)phenyl]isoquinoline], for which the IC50 was 0.01 to 0.1 µM.

As for `N#Cc1ccc2cncc(-c3ccc4c(c3)CS(=O)(=O)N4)c2c1` [Compound 193, 4-(2,2-dioxido-1,3-dihydrobenzo[c]isothiazol-5-yl)isoquinoline-6-carbonitrile], the IC50 was in the range of 0.01 to 0.1 µM.

As to `O=C(c1ccc2cncc(Br)c2n1)N1CCC[C@H]1c1ccc(Br)cc1` [Compound 89, (S)-(8-bromo-1,6-naphthyridin-2-yl)(2-(4-bromophenyl)pyrrolidin-1-yl)methanone], the IC50 was in the range of 0.01 to 0.1 µM.

In the case of `Nc1ncc(-c2ccc3c(c2)CS(=O)(=O)N3)c2cc(C(=O)N3CCC3)ccc12` [Compound 194, (1-amino-4-(2,2-dioxido-1,3-dihydrobenzo[c]isothiazol-5-yl)isoquinolin-6-yl)(azetidin-1-yl)methanone], the IC50 was less than 0.01 µM.

For `Cc1cc2cncc(-c3ccc4c(c3)CS(=O)(=O)N4C)c2nc1C(=O)N1CCC(F)(F)C1` [Compound 41, (3,3-Difluoro-pyrrolidin-1-yl)-[3-methyl-8-(1-methyl-2,2-dioxo-2,3-dihydro-1H-benzo[c]isothiazol-5-yl)-[1,6]naphthyridin-2-yl]-methanone], the IC50 lay within 0.01 to 0.1 µM.

For `O=C(c1ccc2cncc(-c3ccc4c(c3)CS(=O)(=O)N4)c2c1)N1CCC1` [Compound 192, azetidin-1-yl(4-(2,2-dioxido-1,3-dihydrobenzo[c]isothiazol-5-yl)isoquinolin-6-yl)methanone], the IC50 is less than 0.01 µM.

As to `CC(C)(O)Cn1cc(-c2ccc(-c3cncc4ccc(N5C(=O)Cc6ccccc65)cc34)cc2)cn1` [Compound 150, 1-(4-(4-(1-(2-hydroxy-2-methylpropyl)-1H-pyrazol-4-yl)phenyl)isoquinolin-6-yl)indolin-2-one], the IC50 lay within 0.01 to 0.1 µM.

On to `Cn1cc(-c2ccc(-c3cncc4ccc(C(=O)NCc5ccc(C(F)(F)F)cc5)nc34)cc2)cn1` [Compound 87, 8-(4-(1-methyl-1H-pyrazol-4-yl)phenyl)-N-(4-(trifluoromethyl)benzyl)-1,6-naphthyridine-2-carboxamide], for which the IC50 lay within 0.01 to 0.1 µM.

In the case of `O=C(c1ccc2cnccc2n1)N1CCC[C@H]1c1ccc(Cl)cc1` [Compound 37, (S)-(2-(4-chlorophenyl)pyrrolidin-1-yl)(1,6-naphthyridin-2-yl)methanone], the IC50 was less than 0.01 µM.

Regarding `COC1CN(C(=O)c2ccc3c(N)ncc(-c4ccc(-c5cnn(C(C)C)c5)cc4)c3n2)C1` [Compound 161, (5-amino-8-(4-(1-isopropyl-1H-pyrazol-4-yl)phenyl)-1,6-naphthyridin-2-yl)(3-methoxyazetidin-1-yl)methanone], the IC50 lay in the range of 0.01 to 0.1 µM.

For `CC(C)(O)Cn1cc(-c2ccc(-c3cncc4ccc(C(N)=O)cc34)cc2)cn1` [Compound 97, 4-(4-(1-(2-hydroxy-2-methylpropyl)-1H-pyrazol-4-yl)phenyl)isoquinoline-6-carboxamide], the IC50 is less than 0.01 µM.

`Cn1cc(-c2ccc(-c3c(Cl)ncc4ccc(C(=N)N)nc34)cc2)cn1` [Compound 68, 7-chloro-8-(4-(1-methyl-1H-pyrazol-4-yl)phenyl)-1,6-naphthyridine-2-carboximidamide]: the IC50 lay in the range of 0.101 to 0.5 µM.

Regarding `COC1(C)CN(C(=O)c2ccc3cncc(-c4ccc(-c5cnn(C)c5)cc4)c3c2)C1` [Compound 185], the IC50 was 0.01 to 0.1 µM.

Regarding `Cn1cc(-c2ccc(-c3cncc4ccc(N5CCCCS5(=O)=O)cc34)cc2)cn1` [Compound 110, 6-(1,1-Dioxo-[1,2]thiazinan-2-yl)-4-[4-(1-methyl-1H-pyrazol-4-yl)-phenyl]-isoquinoline], the IC50 was 0.01 to 0.1 µM.

`CN1C(=O)Cc2ccc(-c3cnc(N)c4ccc(C(=O)N5CC(F)(F)C5)cc34)cc21` [Compound 164, 6-[1-Amino-6-(3,3-difluoro-azetidine-1-carbonyl)-isoquinolin-4-yl]-1-methyl-1,3-dihydro-indol-2-one]: the IC50 was in the range of 0.01 to 0.1 µM.

On to `Cn1ncc2cc(-c3cncc4ccc(C#N)cc34)ccc21` [Compound 120, 4-(1-methyl-1H-indazol-5-yl)isoquinoline-6-carbonitrile], for which the IC50 is 0.01 to 0.1 µM.

On to `CN1c2ccc(-c3cncc4ccc(C(=O)NC5(C)CC5)nc34)cc2CS1(=O)=O` [Compound 8, 8-(1-Methyl-2,2-dioxo-2,3-dihydro-1H-benzo[c]isothiazol-5-yl)-[1,6]naphthyridine-2-carboxylic acid (1-methyl-cyclopropyl)-amide], for which the IC50 is less than 0.01 µM.

Regarding `Cc1ccc2cncc(-c3ccc4c(c3)CS(=O)(=O)N4C)c2n1` [Compound 65, 1-Methyl-5-(2-methyl-1,6-naphthyridin-8-yl)-1,3-dihydrobenzo[c]isothiazole 2,2-dioxide], the IC50 was in the range of 0.101 to 0.5 µM.

For `CN1c2ccc(-c3cncc4ccc(CN)nc34)cc2CS1(=O)=O` [Compound 71, C-[8-(1-Methyl-2,2-dioxo-2,3-dihydro-1H-benzo[c]isothiazol-5-yl)-[1,6]naphthyridin-2-yl]-methylamine], the IC50 was 0.101 to 0.5 µM.

As to `Cn1cc(-c2ccc(-c3cncc4ccc(O)nc34)cc2)cn1` [Compound 79, 8-(4-(1-methyl-1H-pyrazol-4-yl)phenyl)-1,6-naphthyridin-2-ol], the IC50 lay within 0.501 to 1 µM.

As to `CN1c2ccc(-c3cncc4ccc(CO)nc34)cc2CS1(=O)=O` [Compound 51, [8-(1-Methyl-2,2-dioxo-2,3-dihydro-1H-benzo[c]isothiazol-5-yl)-[1,6]naphthyridin-2-yl]-methanol], the IC50 was 0.01 to 0.1 µM.

With `COC1CN(C(=O)c2ccc3cncc(-c4ccc(-c5cc(C(F)(F)F)nn5C)cc4)c3n2)C1` [Compound 57, (3-methoxyazetidin-1-yl)(8-(4-(1-methyl-3-(trifluoromethyl)-1H-pyrazol-5-yl)phenyl)-1,6-naphthyridin-2-yl)methanone], the IC50 was in the range of 0.101 to 0.5 µM.

Turning to `CC(=O)N1CCN(c2ccc3cncc(-c4ccc(-c5cnn(C)c5)cc4)c3c2)CC1` [Compound 125, 1-(4-{4-[4-(1-Methyl-1H-pyrazol-4-yl)-phenyl]-isoquinolin-6-yl}-piperazin-1-yl)-ethanone], the IC50 fell in the range of 0.101 to 0.5 µM.

For `Cc1cc2cncc(-c3ccc4c(c3)CS(=O)(=O)N4C)c2nc1C(=O)NC1CC1` [Compound 28, 3-Methyl-8-(1-methyl-2,2-dioxo-2,3-dihydro-1H-benzo[c]isothiazol-5-yl)-[1,6]naphthyridine-2-carboxylic acid cyclopropylamide], the IC50 is less than 0.01 µM.

Regarding `COC1(C)CN(C(=O)c2ccc3cncc(-c4ccc(-c5cnn(C)c5)cc4)c3n2)C1` [Compound 149, (3-methoxy-3-methylazetidin-1-yl)(8-(4-(1-methyl-1H-pyrazol-4-yl)phenyl)-1,6-naphthyridin-2-yl)methanone], the IC50 is less than 0.01 µM.

Take `CNC(=O)c1ccc2c(N)ncc(-c3ccc4c(c3)CS(=O)(=O)N4C)c2n1` [Compound 32, 5-Amino-8-(1-methyl-2,2-dioxo-2,3-dihydro-1H-benzo[c]isothiazol-5-yl)-[1,6]naphthyridine-2-carboxylic acid methylamide]: the IC50 was less than 0.01 µM.

In the case of `CN1c2ccc(-c3cnc(N)c4ccc(CO)nc34)cc2CS1(=O)=O` [Compound 58, [5-Amino-8-(1-methyl-2,2-dioxo-2,3-dihydro-1H-benzo[c]isothiazol-5-yl)-[1,6]naphthyridin-2-yl]-methanol], the IC50 was 0.101 to 0.5 µM.

As to `CN1c2ccc(-c3cncc4ccc(C(=O)NC5CC5)nc34)cc2CS1(=O)=O` [Compound 21, 8-(1-Methyl-2,2-dioxo-2,3-dihydro-1H-benzo[c]isothiazol-5-yl)-[1,6]naphthyridine-2-carboxylic acid cyclopropylamide], the IC50 is less than 0.01 µM.

Take `CNC(=O)c1ccc2cncc(-c3ccc4c(c3)N(C)C(=O)C4)c2n1` [Compound 15, 8-(1-methyl-2-oxo-2,3-dihydro-1H-indol-6-yl)-[1,6]naphthyridine-2-carboxylic acid methylamide]: the IC50 was less than 0.01 µM.

Regarding `CC(C)(O)Cn1cc2cc(-c3cncc4ccc(NS(C)(=O)=O)cc34)ccc2n1` [Compound 151, N-(4-(2-(2-hydroxy-2-methylpropyl)-2H-indazol-5-yl)isoquinolin-6-yl)methanesulfonamide], the IC50 was less than 0.01 µM.

`C[C@@H](NC(=O)c1ccc2cncc(Br)c2n1)c1ccccc1` [Compound 48, (R)-8-bromo-N-(1-phenylethyl)-1,6-naphthyridine-2-carboxamide]: the IC50 lay in the range of 0.01 to 0.1 µM.

As for `Cn1cc(-c2ccc(-c3cncc4ccc(C(N)=O)cc34)cc2)cn1` [Compound 96, 4-(4-(1-methyl-1H-pyrazol-4-yl)phenyl)isoquinoline-6-carboxamide], the IC50 was less than 0.01 µM.

With `CC1CC(=O)N(c2ccc3cncc(-c4ccc(-c5cnn(C)c5)cc4)c3c2)C1` (centres unmarked) [Compound 111, 4-Methyl-1-{4-[4-(1-methyl-1H-pyrazol-4-yl)-phenyl]-isoquinolin-6-yl}-pyrrolidin-2-one], the IC50 was in the range of 0.01 to 0.1 µM.

In the case of `Cn1cc(-c2ccc(-c3cnc(N)c4ccc(C(=O)N5CCC(F)(F)C5)cc34)cc2)cn1` [Compound 196, (1-amino-4-(4-(1-methyl-1H-pyrazol-4-yl)phenyl)isoquinolin-6-yl)(3,3-difluoropyrrolidin-1-yl)methanone], the IC50 is 0.01 to 0.1 µM.
